Measurements from patent publication US9132130B2, “Purine derivative and antitumor agent using same” (ZENYAKU KOGYO KABUSHIKI KAISHA, priority 2009, dated 2015).

Columns and labels:
human lung cancer A549 = assay: in vivo antitumor activity, nude mice transplanted with human lung cancer A549; design: species or system BALB/c-nu/nu mice; settings: 400 mg/kg intraperitoneally daily day 0 to day 13 (12 times), tumor volume at day 14
Method: Tumor tissue fragments of human lung cancer A549 (3 mm×3 mm×3 mm) were transplanted subcutaneously into the chests of six-week-old female BALB/c-nu/nu mice, and sample administration started when the tumor volume reached at least approximately 100 mm^3 (day 0). Compound 2 and Compound 7 were suspended in a 1% hydroxypropylcellulose (HPC [L]) solution using an agate mortar. 400 mg/kg of Compound 2 was orally administered daily from day 0 to day 13 (excluding day 3 and day 10, a total of 12 times). 400 mg/kg of Compound 7 was intraperitoneally administered daily from day 0 to day 13 (excluding day 4 and day 11, a total of 12 times). Tumor diameters were measured to calculate tumor volume (½×long diameter×short diameter×short diameter), and the tumor volume after 14 days (at day 14) from the start of sample administration was divided by the tumor volume at the start of the administration to calculate relative tumor growth rate. The percentage of the relative tumor growth rate of the control group with respect to the relative tumor growth rate of the group administered with Compound 2 or Compound 7 was taken as T/C (%).

[1] = test system: WiDr cells (human colon cancer cells); assay: in vitro antitumor activity test, WiDr cells, XTT colorimetry; format: cell-based; settings: cultured 72 hours
How it was run: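 Human colon cancer cells in MEM/10% FBS were seeded 3×10^4 cells/ml and allowed to adhere for 24 h, then exposed to compounds prepared at 2.0×10^−9 to 2.0×10^−4 M in RPMI 1640 for 72 h at 37° C, 5% CO2. Growth was read by XTT colorimetry and GI50 (μM) calculated.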

[2] = test system: A549 cells (human lung cancer cells); assay: in vitro antitumor activity test, A549 cells, XTT colorimetry; format: cell-based; settings: cultured 72 hours
How it was run: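 Cells seeded at 2×10^4 cells/ml in MEM + 10% FBS, 25 mM HEPES, kanamycin, allowed to adhere 24 h, then exposed to compounds (DMSO stocks diluted in RPMI 1640; prepared at 2.0×10^−9 to 2.0×10^−4 M) for 72 h at 37 °C, 5% CO2. Growth inhibition read by XTT colorimetry; GI50 (μM) calculated.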

[3] = test system: B16F10 cells (mouse melanoma [malignant melanoma] cells); assay: in vitro antitumor activity test, B16F10 cells, XTT colorimetry; format: cell-based; settings: B16-F10, cultured 72 hours
How it was run: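 B16F10 mouse melanoma cells were seeded from a 1×10^4 cells/ml suspension and allowed to adhere for 24 h. Compounds in DMSO were diluted in RPMI 1640 with 10% FBS to 2.0×10^−9 to 2.0×10^−4 M and incubated 72 h at 37° C, 5% CO2. XTT colorimetry gave GI50 (μM).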

[4] = test system: PC-3 cells (human prostate cancer cells); assay: in vitro antitumor activity test, PC-3 cells, XTT colorimetry; format: cell-based; settings: PC-3 human prostate cancer cells, cultured 72 hours
How it was run: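 PC-3 human prostate cancer cells, seeded at 2×10^4 cells/ml and allowed to adhere for 24 h, were exposed 72 h at 37° C, 5% CO2 to compound diluted in RPMI 1640 with 10% FBS to 2.0×10^−9 to 2.0×10^−4 M (pre-addition solutions). Growth was measured by XTT colorimetry and GI50 (μM) calculated.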

[5] = test system: MCF-7 cells (human breast cancer cells); assay: antitumor activity against breast cancer cells, cell counting; format: cell-based; settings: MCF7; MCF-7 human breast cancer cells, cultured 72 hours, cell counter
Method: MCF-7 cells (human breast cancer cells) subcultured in a culture medium composed of a MEM medium added with 10% fetal bovine serum, 25 mM HEPES and 0.1 mg/ml kanamycin under the conditions of 37° C. and 5% carbon dioxide gas were made into single floating cells by treating with trypsin/EDTA, and a single cell suspension of 4×10^4 cells per 1 ml was prepared using the MEM medium (added with 10% fetal bovine serum, 25 mM HEPES and 0.1 mg/ml kanamycin). After dissolving the test substances (Compound 2 and Compound 7) in DMSO, they were diluted with the MEM medium (added with 10% fetal bovine serum, 25 mM HEPES and 0.1 mg/ml kanamycin) and prepared so that the concentrations were 6.4×10^−8 to 2.0×10^−5 M.
0.1 ml of the cell suspension was placed into each well of a 96-well microplate, cultured for 24 hours to allow the cells to adhere to the microplate, then 0.1 ml of the sample solutions were added, and cultured for 72 hours at 37° C. in 5% carbon dioxide gas.
Afterwards, the cells in each well were made single floating cells by treating with trypsin/EDTA, and the number of cells was counted using a cell counter to obtain the growth inhibition rate at various sample concentrations and calculate the concentrations at which growth was inhibited by 50% (GI50 values [μM]).

[6] = test system: P388 cells (mouse leukemia cells); assay: in vitro antitumor activity test, P388 cells, XTT colorimetry; format: cell-based; settings: cultured 72 hours
How it was run: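 Cells from DBA/2 mouse ascites, in RPMI 1640 with 10% FBS and 25 mM HEPES, seeded from a 4×10^4 cells/ml suspension. Equal volume added of compound solutions prepared at 2.0×10^−9 to 2.0×10^−4 M (pre-mixing). After 72 h at 37° C, 5% CO2, growth read by XTT; GI50 (μM) is the concentration giving 50% growth inhibition.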

SMILES | GI50 [1] [nM] | GI50 [2] [nM] | GI50 [3] [nM] | GI50 [4] [nM] | GI50 [6] [nM] | T/C (human lung cancer A549) [%] | GI50 [5] [nM]
CCn1cnc2c(N3C=COCC3)nc(SCc3ccc(OC)c(F)c3)nc21 [Compound 154, 6-(2,3-dihydro-[1,4]oxadin-4-yl)-9-ethyl-2-(3-fluoro-4-methoxybenzylsulfanyl)-9H-purine] | 170 | 100 | 370 | 220 | 90 | – | –
CCOc1ccc(CSc2nc(N3C=COCC3)c3ncn(CC)c3n2)cc1[N+](=O)[O-] [Compound 155, 6-(2,3-dihydro-[1,4]oxadin-4-yl)-9-ethyl-2-(3-nitro-4-ethoxybenzylsulfanyl)-9H-purine] | 940 | 500 | 1310 | 1500 | 490 | – | –
CCOc1ccc(CSc2nc(N3C=COCC3)c3ncn(CC)c3n2)cc1N [Compound 156, 2-(3-amino-4-ethoxybenzylsulfanyl)-6-(2,3-dihydro-[1,4]oxadin-4-yl)-9-ethyl-9H-purine] | 3380 | 700 | 1400 | 1040 | 740 | – | –
CCc1nc2c(N3C=COCC3)nc(SCc3ccc(OC)c(F)c3)nc2n1C [Compound 157, 6-(2,3-dihydro[1,4]oxadin-4-yl)-8-ethyl-2-(3-fluoro-4-methoxybenzylsulfanyl)-9-methyl-9H-purine] | 80 | 60 | 80 | 90 | 40 | – | –
CCc1nc2c(N3C=COCC3)nc(SCc3ccc(OC)cc3)nc2n1CC [Compound 158, 8,9-diethyl-6-(2,3-dihydro-[1,4]oxadin-4-yl)-2-(4-methoxybenzylsulfanyl)-9H-purine] | 350 | 410 | 420 | 310 | 240 | – | –
COc1ccc(CSc2nc(-c3ccc([N+](=O)[O-])cc3)c3ncn(C)c3n2)cc1 [Compound 166, 2-(4-methoxybenzylsulfanyl)-9-methyl-6-(4-nitrophenyl)-9H-purine] | 820 | 670 | 1550 | 1390 | 280 | – | –
COc1ccc(CSc2nc(-c3ccco3)c3ncn(C)c3n2)cc1 [Compound 167, 6-(2-furyl)-2-(4-methoxybenzylsulfanyl)-9-methyl-9H-purine] | 1750 | 1490 | 2470 | 1800 | 1870 | – | –
COc1ccc(CSc2nc(-c3ccsc3)c3ncn(C)c3n2)cc1 [Compound 168, 2-(4-methoxybenzylsulfanyl)-9-methyl-6-(3-thienyl)-9H-purine] | 140 | 220 | 210 | 320 | 140 | – | –
C/C=C/c1nc(SCc2ccc(OC)c([N+](=O)[O-])c2)nc2c1ncn2C [Compound 171, 2-(4-methoxy-3-nitrobenzylsulfanyl)-9-methyl-6-(1-trans-propenyl)-9H-purine] | 370 | 270 | 560 | 470 | 220 | – | –
C/C=C/c1nc(SCc2ccc(OC)c(N)c2)nc2c1ncn2C [Compound 173, 2-(3-amino-4-methoxybenzylsulfanyl)-9-methyl-6-(1-trans-propenyl)-9H-purine] | 1510 | 160 | 250 | 380 | 90 | – | –
Sc1ncnc2nc[nH]c12 [Compound A, 6-mercaptopurine, reference compound] | 70000 | > 100000 | 22600 | > 100000 | 22500 | – | –
COc1ccc(CNc2nc(N3CCOCC3)c3ncn(C)c3n2)cc1 [Compound B, reference compound] | > 10000 | > 10000 | > 10000 | > 10000 | > 10000 | – | –
CN(C)c1nc(SCc2ccccc2)nc2[nH]cnc12 [Compound C, reference compound] | > 10000 | > 10000 | > 10000 | > 10000 | > 10000 | – | –

Further lines, with some results ahead:

GI50 [1] [nM] | GI50 [2] [nM] | GI50 [3] [nM] | GI50 [4] [nM] | GI50 [6] [nM] | SMILES | T/C (human lung cancer A549) [%] | GI50 [5] [nM]
250 | 130 | 340 | 140 | 120 | CCc1nc2c(N3CCN(N=O)CC3)nc(SCc3ccc(OC)cc3)nc2n1C [Compound 7, 8-ethyl-2-(4-methoxybenzylsulfanyl)-9-methyl-6-(4-nitrosopiperazin-1-yl)-9H-purine] | 55.4 | 130
< 40 | < 40 | < 40 | < 40 | < 40 | COc1ccc(CSc2nc(N3C=COCC3)c3ncn(C)c3n2)cc1F [Compound 152, 6-(2,3-dihydro-[1,4]oxadin-4-yl)-2-(3-fluoro-4-methoxybenzylsulfanyl)-9-methyl-9H-purine] | – | –
< 40 | < 40 | < 40 | < 40 | < 40 | COc1ccc(CSc2nc(N3C=COCC3)c3ncn(C)c3n2)cc1C#N [Compound 153, 2-(3-cyano-4-methoxybenzylsulfanyl)-6-(2,3-dihydro-[1,4]oxadin-4-yl)-9-methyl-9H-purine] | – | –
510 | 670 | 540 | 870 | 280 | C/C=C/c1nc(SCc2ccc(OC)cc2)nc2c1ncn2C [Compound 163, 2-(4-methoxybenzylsulfanyl)-9-methyl-6-(1-trans-propenyl)-9H-purine] | – | –
4100 | 3300 | 980 | 3200 | 260 | C=Cc1nc(SCc2ccc(OC)cc2)nc2c1ncn2C [Compound 165, 2-(4-methoxybenzylsulfanyl)-9-methyl-6-vinyl-9H-purine] | – | –
80 | < 40 | 110 | 70 | < 40 | COc1ccc(CSc2nc(-c3c(C)noc3C)c3ncn(C)c3n2)cc1 [Compound 169, 6-(3,5-dimethylisoxazol-4-yl)-2-(4-methoxybenzylsulfanyl)-9-methyl-9H-purine] | – | –
< 40 | < 40 | 70 | 50 | < 40 | COc1ccc(CSc2nc(-c3cn[nH]c3)c3ncn(C)c3n2)cc1 [Compound 170, 2-(4-methoxybenzylsulfanyl)-9-methyl-6-(pyrazol-4-yl)-9H-purine] | – | –
